The target in data set [1] is T1, FAK (Homo sapiens (Human), UniProt Q05397). Kind of data set: Time-dependent FAK kinase inhibition activity test. It counts as biochemical.
The test system of a further data set is SNU-668 cells. Put plainly: Cell proliferation inhibition, SNU-668 (CELL TITER-GLO). The class given is cell-based. Conditions: Homo sapiens, SNU668, 96 h; SNU-668, 4 days. The method, then:
(§1) • a. SNU-668 cells (catalog number: 00668, KCLB) or NUGC4 cells (catalog number: 0834, JCRB) were allowed to grow to 70%-80% confluence, the supernatant of the culture medium was pipetitted off, rinsed once with PBS and then pipetitted off; • b. To a 10 cm dish was added 1 mL of 0.25% trypsin, votexed to homogenity and then place into incubator for digestion for 2-3 min; • c. The culture dish is removed from the incubator added with 2-3 mL complete culture medium to terminate the digestion, pipetitted into a 15 mL centrifuge tube, and then centrifuged in centrifuge at 1000 rpm for 5 minutes; • d. The supernatant was pipetitted off, and the cells were resuspended in 1 mL of complete culture medium, and then counted; • e. 1000 cells were plated into each well of 96-well plate, and then cultured overnight in a cell incubator, 2) Cell Administration with Compounds • a. Compounds to be tested were dissolved and votexed to homogeneity; • b. Each compound was serielly diluted in 1:3 ratio from 1 mM stock solution to 9 gradient concentrations; • c. The plate seeded with cells was taken out from the incubator, pipetitted off culture medium, and then added slowly in each well with 100 μL fresh culture medium by multi-channel pipette. Wells are labeled by corresponding compounds and concentrations, and then gently added with 100 μL compound-containing culture medium along the well wall by multi-channel pipette; • d. After the addition to all wells, the plate was gently shaken to allow homogeneous spread of the compound, and then put back to the incubator, with time recorded;
(§2) 4 days after the addition of compounds, the culture medium was removed and mixed at 100 μL from each well with cell titer-glo testing liquid in 1:1 ratio. The mixture was incubated with shaking at room temperature for 10 min and then counted with Plate reader.

A further data set deals with FAK (p-FAK 397). Put plainly: Western Blot of phosphorylated FAK in DGC organoid model. The class given is cell-based. As to conditions: 48 hours, dose-dependent. The method, then: (§3) Experimental procedures: Organoids were amplified in 6-well plates (7 Matrigel aliquots per well) for 2-3 days prior to evaluation. After passage, 1000 cells were inoculated in 5 μl Matrigel aliquot into each well containing 100 μl 50% L-WRN medium in a 96-well plate. Organoids were cultured for 24 hours, followed by addition of the compounds. Compounds were dissolved in DMSO as stock solution (with a final concentration of […]), which was then diluted with DMSO to 1000× concentration of the testing concentration. Culture medium was added to the stock solution to dilute to the testing concentration. The diluted solution was added to the culture plate. Once compound was added, culture medium was no longer added, and no further compound added. After the organoids were cultured for a specified number of days, the effects of compounds were evaluated by the following three methods, each using DMSO as negative control.
(§4) 2. After cell culture in accordance with the above procedure and culture with compounds for 48 hours, the cells were lysed, and proteins were extracted and tested by Western Blot. After gel imaging, gray values of protein bands were analyzed to investigate the effects of the compounds on phosphorylated FAK and activated YAP in the organoid model. (For detailed methods, please refer to Haisheng Zhang, Cancer Discovery, 2020).
(In western blotting, separated proteins are transferred to a membrane and probed.)

For data set [2], the system named is activated YAP (non-p-YAP). Put plainly: Western Blot of activated YAP in DGC organoid model. As to conditions: 48 hours, dose-dependent. The class given is cell-based. The method, then:
as §3, §4

The target in data set [3] is T1, FAK. Kind of data set: In vitro enzymatic inhibitory activity, FAK kinase (HTRF KinEASE-TK). As to conditions: FAK kinase, enzyme pre-incubation 15 minutes at 25° C. A general note: In TR-FRET formats the signal depends on donor and acceptor labels being close together.
In the next data set the test system is NUGC4 cells. Kind of data set: Cell proliferation inhibition, NUGC4 (CELL TITER-GLO). The class given is cell-based. Conditions: Homo sapiens, NUGC-4, 96 h; NUGC4, 4 days. The method, then:
as §1, §2
On the technique in general: ATP-based viability assays read luminescence as a measure of living cells.

The test system of data set [4] is diffuse-type gastric cancer (DGC) organoid. Kind of data set: Cell morphology in diffuse-type gastric cancer (DGC) organoid model. As to conditions: 500 nM compound. It counts as cell-based. The method, then: as §3
1. There was a difference in cell morphology between normal cells and the diffuse-type gastric cancer (DGC) organoid model. Normal organoids have hollow spheroid shape, while organoids of diffuse-type gastric cancer have solid grape-like irregular shape. Therefore, the observations of the effect of drugs on cell morphology may be one of the important characteristics for evaluating drug efficacy.

The nature of data set [5]: In vivo pharmacokinetic evaluation in SD rats, gavage. Conditions: rat, plasma, po, male SD rats, 5 mg/kg. The method, then: Three male SD rats were administered with compounds in a single dose of 5 mg/kg or 3 mg/kg by gavage, and blood samples were collected before administration and at 0.25, 0.5, 1, 2, 4, 6, 8, and 24 h after administration.
Preparation of solutions of compounds to be dosed at 5 mg/kg: 5.5 mg compound (converted based on purity) was accurately weighed and added to 0.55 mL of DMSO. Clear solutions were obtained after stirring and sonication. 0.5 mL of each of the above solutions was added with 1 mL of Solutol, stirred for 1 minute; and then added with 8.5 mL of physiological saline and stirred for 1 minute, to obtain a clear solution at 0.5 mg/mL concentration.
Preparation of a solution of compounds to be dosed at 3 mg/kg: 3.6 mg compound (converted according to purity) was accurately weighed and added to 0.6 mL of DMSO. Clear solutions were obtained after stirring and sonication. 0.5 mL of each of the above solutions was added with 1 mL of Solutol and stirred for 1 minute; and then added with 8.5 mL of physiological saline and stirred for 1 minute, to obtain a clear solution at 0.3 mg/mL concentration.
Rats were administered the formulations prepared in step 2 by gavage at a dose of 10 mL/kg. The rats were fasted overnight before the administration and resumed feeding 4 hours after administration. Throughout the entire experiment, the animals were free to access drinking water.
The plasma concentration was measured using LC-MS/MS method.

For another data set, the target named is YAP (non-p-YAP) (Homo sapiens (Human), UniProt P46937). Put plainly: Western blot of YAP activity in SNU-668 cell line model. Conditions: SNU668, 24 hours. The class given is cell-based. The protocol:
• a. SNU-668 cells (catalog number: 00668, KCLB) were allowed to grow to 70%-80% confluence, the supernatant of the culture medium was pipetitted off, rinsed once with PBS and then pipetitted off; • b. To a 10 cm dish was added 2 mL trypsin, and digested in an incubator for 3-5 min; • c. The culture dish is removed from the incubator added with 5 mL 1640 medium (containing 10% FBS) to terminate the digestion, pipetitted into a 15 mL centrifuge tube, and then centrifuged in centrifuge at 1000 rpm for 5 minutes; • d. The supernatant was pipetitted off, added with 5 mL 1640 medium (containing 10% FBS). the cells were resuspended thoroughly and mix well, then counted; • e. 1.5×10^5 cells were seeded into each well of 12-well plate, and then cultured in a cell incubator for 24 h. 2) Cell Treatment with Compounds • a. Stock solutions of the compounds to be tested (1 mM) were diluted in DMSO, and blown and nixed several times to homogeneity; • b. The plate seeded with cells was taken out from the incubator, gently added in wells with 1 ul 1 mM stocks (1000× diluted) along the well wall, and then gently shaken immediately to homogeneity; • c. After the addition to all wells, the plate was gently shaken to allow homogeneous spread of the compound, and then put back to the incubator, with time recorded; Samples were collected after 24 hours.
• a. […]

Experimental findings from US20250127800A1, “PYRIMIDINE OR PYRIDINE DERIVATIVE AND MEDICINAL USE THEREOF” (SIGNET THERAPEUTICS INC., priority 2021, published 2025) are described below.

For orientation: IC50 means the concentration that inhibits the measured activity by half. Higher therefore signals a need for much substance. The term AUC(0-inf) denotes the area under the concentration-time curve extrapolated to infinity. For orientation: AUC(0-t) means exposure summed from dosing to a finite time, without extrapolation to infinity. Low values mean less exposure, high ones more exposure. The term Cmax denotes the maximum level reached in the sampled fluid or tissue. One may read the Tmax as the time at which the peak concentration occurs. As usually defined, the half-life is how long it takes for the measured level to halve. Lower therefore signals fast loss.

T1 sequence (Q05397 whole entry, species assumed): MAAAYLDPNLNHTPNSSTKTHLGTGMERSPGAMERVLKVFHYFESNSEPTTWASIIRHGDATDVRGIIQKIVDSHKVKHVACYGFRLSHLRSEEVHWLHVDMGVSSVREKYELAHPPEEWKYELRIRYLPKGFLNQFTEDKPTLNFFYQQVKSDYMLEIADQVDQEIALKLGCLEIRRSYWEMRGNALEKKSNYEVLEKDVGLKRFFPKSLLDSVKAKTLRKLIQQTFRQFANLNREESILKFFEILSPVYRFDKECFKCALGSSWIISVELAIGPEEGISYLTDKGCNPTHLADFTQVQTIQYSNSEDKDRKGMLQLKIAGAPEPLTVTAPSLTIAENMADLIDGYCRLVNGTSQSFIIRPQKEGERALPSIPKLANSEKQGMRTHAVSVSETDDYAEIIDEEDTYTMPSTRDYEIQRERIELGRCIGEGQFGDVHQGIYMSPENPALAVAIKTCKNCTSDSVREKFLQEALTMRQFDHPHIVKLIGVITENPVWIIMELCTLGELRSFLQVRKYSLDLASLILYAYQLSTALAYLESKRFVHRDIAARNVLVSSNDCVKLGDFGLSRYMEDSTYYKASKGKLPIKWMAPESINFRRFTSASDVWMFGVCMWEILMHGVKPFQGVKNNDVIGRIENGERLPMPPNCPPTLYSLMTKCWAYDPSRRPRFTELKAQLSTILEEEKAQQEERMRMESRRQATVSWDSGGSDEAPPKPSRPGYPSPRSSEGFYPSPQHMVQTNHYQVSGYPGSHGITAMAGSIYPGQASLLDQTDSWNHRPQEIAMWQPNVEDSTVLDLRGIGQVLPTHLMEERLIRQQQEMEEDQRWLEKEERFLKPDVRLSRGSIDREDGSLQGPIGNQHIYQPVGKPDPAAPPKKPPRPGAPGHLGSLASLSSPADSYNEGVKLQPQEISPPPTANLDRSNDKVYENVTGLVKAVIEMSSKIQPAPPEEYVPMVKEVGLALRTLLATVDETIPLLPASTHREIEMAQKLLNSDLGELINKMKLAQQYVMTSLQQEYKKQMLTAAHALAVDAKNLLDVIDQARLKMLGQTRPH

As for `C=CC(=O)N1CCCC(c2cccc(NCc3ccc(Nc4ncc(C(F)(F)F)c(Nc5ccccc5C(=O)NC)n4)cc3)c2)C1` (stereo not drawn) [Compound 6, 2-((2-((4-(((3-(1-acryloylpiperidin-3-yl)phenyl)amino)methyl)phenyl)amino)-5-(trifluoromethyl)pyrimidin-4-yl)amino)-N-methylbenzamide], the IC50 on FAK [1] (enzyme pre-incubation 60 minutes at 25° C.) amounted to 0.662 nM; in the data set with SNU-668 cells it was 50 nM; on FAK [3] it was 2.68 nM; in the data set on NUGC4 cells it was 20 nM. For the same molecule, the “effective inhibition time on the kinase activity of FAK” value at FAK [1] (pre-incubation 0, 15 and 60 minutes, compared to defactinib) is reported as “longer effective inhibition time”. Also, in the data set with FAK (p-FAK 397), the “inhibition of phosphorylation of FAK (p-FAK 397)” value (“inhibition … (p-FAK 397)” for short) is on record as “can inhibit the phosphorylation of FAK (p-FAK 397)”. Besides, the “inhibition of activated YAP (non-p-YAP)” value in data set [2] is “inhibit the activated YAP (non-p-YAP)”.

Take `C=CC(=O)N1CCCC1c1ccc(NCc2ccc(Nc3ncc(C(F)(F)F)c(Nc4ccccc4C(=O)NC)n3)cc2)cc1` (stereo not drawn) [Compound 9, 2-((2-((4-(((4-(1-acryloylpyrrolidin-2-yl)phenyl)amino)methyl)phenyl)amino)-5-(trifluoromethyl)pyrimidin-4-yl)amino)-N-methylbenzamide]: the “effect on cell morphology of DGC organoid” value in [4] was “significantly better effects than defactinib and IN-10018”. Moreover, the “inhibition … (p-FAK 397)” value in the data set on FAK (p-FAK 397) is on record as “can inhibit the phosphorylation of FAK (p-FAK 397)”. In addition, the “inhibition of activated YAP (non-p-YAP)” value in data set [2] was “inhibit the activated YAP (non-p-YAP)”. This molecule also yielded a half-maximal inhibitory concentration (IC50) against FAK [3] of 3.71 nM.

`C=CC(=O)N1CCCC(c2cccc(NCc3ccc(Nc4ncc(C(F)(F)F)c(Nc5ccccc5C(=O)NOC)n4)cc3)c2)C1` (stereo not drawn) [Compound 11, 2-((2-((4-(((3-(1-acryloylpiperidin-3-yl)phenyl)amino)methyl)phenyl)amino)-5-(trifluoromethyl)pyrimidin-4-yl)amino)-N-methoxybenzamide]: the “effect on cell morphology of DGC organoid” value in [4] was “significantly better effects than defactinib and IN-10018”. The “inhibition … (p-FAK 397)” value with FAK (p-FAK 397) is recorded as “can inhibit the phosphorylation of FAK (p-FAK 397)”. In addition, in data set [2], the “inhibition of activated YAP (non-p-YAP)” value is given as “inhibit the activated YAP (non-p-YAP)”. Moreover, the half-inhibitory concentration (IC50) amounted to 5.67 nM against FAK [3] and 90 nM with NUGC4 cells.

Consider `C=CC(=O)N1CCCC(c2cccc(NCc3ccc(Nc4ncc(C(F)(F)F)c(Nc5cccc(F)c5C(=O)NC)n4)cc3)c2)C1` (stereo not drawn) [Compound 13, 2-((2-((4-(((3-(1-acryloylpiperidin-3-yl)phenyl)amino)methyl)phenyl)amino)-5-(trifluoromethyl)pyrimidin-4-yl)amino)-6-fluoro-N-methylbenzamide], for which the “inhibition … (p-FAK 397)” value in the data set with FAK (p-FAK 397) was “can inhibit the phosphorylation of FAK (p-FAK 397)”. Besides, the “inhibition of activated YAP (non-p-YAP)” value in data set [2] is “inhibit the activated YAP (non-p-YAP)”. At FAK [3], this molecule had an IC50 of 19.8 nM.

Turning to `C=CC(=O)N1CCCC(c2cccc(NCc3ccc(Nc4ncc(C(F)(F)F)c(Nc5ccccc5S(=O)(=O)NC(C)C)n4)cc3)c2)C1` (stereo not drawn) [Compound 19, 2-((2-((4-(((3-(1-acryloylpiperidin-3-yl)phenyl)amino)methyl)phenyl)amino)-5-(trifluoromethyl)pyrimidin-4-yl)amino)-N-isopropylbenzenesulfonamide], the IC50 with SNU-668 cells is 210 nM; at FAK [3], 10.4 nM; in the data set on NUGC4 cells, 90 nM.

Regarding `C=CC(=O)N1CCCC(c2cccc(NCc3ccc(Nc4ncc(C(F)(F)F)c(Nc5ccccc5S(=O)(=O)NC)n4)cc3)c2)C1` (stereo not drawn) [Compound 30, 2-((2-((4-(((3-(1-acryloylpiperidin-3-yl)phenyl)amino)methyl)phenyl)amino)-5-(trifluoromethyl)pyrimidin-4-yl)amino)-N-methylbenzenesulfonamide], the IC50 in the data set on SNU-668 cells was found to be 90 nM; against FAK [3], 3.75 nM.

Consider `C#CC(=O)N1CCCC(c2cccc(NCc3ccc(Nc4ncc(C(F)(F)F)c(Nc5ccccc5C(=O)NC)n4)cc3)c2)C1` (stereo not drawn) [Compound 31], for which the IC50 was less than 10 nM in the data set with SNU-668 cells and 20 nM in the data set on NUGC4 cells.

For `CNC(=O)c1ccc(Nc2ncc(C(F)(F)F)c(NCc3nccnc3N(C)S(C)(=O)=O)n2)cc1` [Defactinib, reference compound], in data set [5], the AUC(0-inf) came out at 0.441 µM·h, the AUC(0-t) is 0.424 µM·h, the peak concentration (Cmax) turned out to be 99.5 nM and the time of peak concentration (Tmax) amounted to 4 h. The molecule further gave a half-life in data set [5] of 1.2 h. On YAP (non-p-YAP), the “inhibition of YAP activity (non-p-YAP)” value is reported as “no inhibiting effect on YAP activity”. The IC50 in the data set on NUGC4 cells was found to be 1370 nM.

Consider `COc1cc(C(=O)NC2CCN(C)CC2)c(F)cc1Nc1ncc(C(F)(F)F)c(Oc2cccc3c2C(=O)N(C)C3)n1` [IN10018, reference compound], for which the half-inhibitory concentration (IC50) came out at 8400 nM with SNU-668 cells and 3500 nM with NUGC4 cells. On YAP (non-p-YAP), the “inhibition of YAP activity (non-p-YAP)” value is reported as “no inhibiting effect on YAP activity”.
